# Data taken from ChEMBL document CHEMBL1201862, “PubChem BioAssay data set” (2004).
#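 Five concentrations, 48 hours, 96-well plates. GI50 = concentration required for 50% inhibition of growth.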 The source made the active and inactive calls. Rule as the data show it: active = GI50 up to about 1.1 µM and inactive = higher.
# Assays:
# Test in all cases: growth of human tumour cells (NCI), 48 h
# [1] = test system: SNB-78
# [2] = test system: HOP-92
# [3] = test system: XF498
# [4] = test system: SK-MEL-5
# [5] = test system: SK-MEL-2
# [6] = test system: MCF7
# [7] = test system: UACC-257
# [8] = test system: IGROV-1
# [9] = test system: DLD-1
# [10] = test system: NCI-H522
# [11] = test system: NCI/ADR-RES
# [12] = test system: KM-20L2
# [13] = test system: HOP-18
# [14] = test system: RPMI-8226
# [15] = test system: SNB-19
# [16] = test system: NCI-H23
# [17] = test system: OVCAR-3
# [18] = test system: U-251
# [19] = test system: MOLT-4
# [20] = test system: UO-31
# [21] = test system: NCI-H460
# [22] = test system: COLO 205
# [23] = test system: LOX IMVI
# [24] = test system: HCT-116
# [25] = test system: HCC 2998
# [26] = test system: RXF 393
# [27] = test system: A549
# [28] = test system: K562
# [29] = test system: SF-268
# [30] = test system: NCI-H226
# [31] = test system: OVCAR-4
# [32] = test system: SK-MEL-28
# [33] = test system: SN12C
# [34] = test system: SW-620
# [35] = test system: OVCAR-5
# [36] = test system: KM12
# [37] = test system: CAKI-1
# [38] = test system: SF-539
# [39] = test system: HOP-62
# [40] = test system: CCRF-CEM
# [41] = test system: M19-MEL
# [42] = test system: UACC-62
# [43] = test system: Malme-3M
# [44] = test system: SF-295
# [45] = test system: HL-60
# [46] = test system: EKVX
# [47] = test system: HT-29
# [48] = test system: OVCAR-8
# [49] = test system: SNB-75
# [50] = test system: SK-OV-3
# [51] = test system: HCT-15
# [52] = test system: A498
# [53] = test system: DMS-273
# [54] = test system: SR
# [55] = test system: DMS-114
# [56] = test system: LXFL 529
# [57] = test system: TK-10
# [58] = test system: M14
# [59] = test system: 786-0
# [60] = test system: ACHN
structure (smiles),measurement,setting,value
CCn1c(=O)c(C(=O)O)c(Cl)c2cc3c(cc21)OCO3,GI50,[1],> 100 µM (inactive)
same,GI50,[2],> 100 µM (inactive)
same,GI50,[3],> 100 µM (inactive)
same,GI50,[4],> 100 µM (inactive)
same,GI50,[5],> 100 µM (inactive)
same,GI50,[6],> 100 µM (inactive)
same,GI50,[7],> 100 µM (inactive)
same,GI50,[8],> 100 µM (inactive)
same,GI50,[9],> 100 µM (inactive)
same,GI50,[10],> 100 µM (inactive)
same,GI50,[11],> 100 µM (inactive)
same,GI50,[12],> 100 µM (inactive)
same,GI50,[13],> 100 µM (inactive)
same,GI50,[14],> 100 µM (inactive)
same,GI50,[15],> 100 µM (inactive)
same,GI50,[16],> 100 µM (inactive)
same,GI50,[17],> 100 µM (inactive)
same,GI50,[18],> 100 µM (inactive)
same,GI50,[19],> 100 µM (inactive)
same,GI50,[20],> 100 µM (inactive)
same,GI50,[21],> 100 µM (inactive)
same,GI50,[22],> 100 µM (inactive)
same,GI50,[23],> 100 µM (inactive)
same,GI50,[24],> 100 µM (inactive)
same,GI50,[25],> 100 µM (inactive)
same,GI50,[26],> 100 µM (inactive)
same,GI50,[27],> 100 µM (inactive)
same,GI50,[28],> 100 µM (inactive)
same,GI50,[29],> 100 µM (inactive)
same,GI50,[30],> 100 µM (inactive)
same,GI50,[31],> 100 µM (inactive)
same,GI50,[32],> 100 µM (inactive)
same,GI50,[33],> 100 µM (inactive)
same,GI50,[34],> 100 µM (inactive)
same,GI50,[35],> 100 µM (inactive)
same,GI50,[36],> 100 µM (inactive)
same,GI50,[37],> 100 µM (inactive)
same,GI50,[38],> 100 µM (inactive)
same,GI50,[39],> 100 µM (inactive)
same,GI50,[40],> 100 µM (inactive)
same,GI50,[41],> 100 µM (inactive)
same,GI50,[42],> 100 µM (inactive)
same,GI50,[43],> 100 µM (inactive)
same,GI50,[44],> 100 µM (inactive)
same,GI50,[45],> 100 µM (inactive)
same,GI50,[46],> 100 µM (inactive)
same,GI50,[47],> 100 µM (inactive)
same,GI50,[48],> 100 µM (inactive)
same,GI50,[49],> 100 µM (inactive)
same,GI50,[50],> 100 µM (inactive)
same,GI50,[51],> 100 µM
same,GI50,[52],> 100 µM (inactive)
same,GI50,[53],> 100 µM (inactive)
COC(=O)C1Cc2c([nH]c3ccccc23)C=N1 (centres undefined),GI50,[1],> 100 µM (inactive)
same,GI50,[2],> 100 µM (inactive)
same,GI50,[54],> 100 µM (inactive)
same,GI50,[4],> 100 µM (inactive)
same,GI50,[7],> 100 µM (inactive)
same,GI50,[55],> 100 µM (inactive)
same,GI50,[8],> 100 µM (inactive)
same,GI50,[9],> 100 µM (inactive)
same,GI50,[10],> 100 µM (inactive)
same,GI50,[12],> 100 µM (inactive)
same,GI50,[13],> 100 µM (inactive)
same,GI50,[14],> 100 µM (inactive)
same,GI50,[15],> 100 µM (inactive)
same,GI50,[16],> 100 µM (inactive)
same,GI50,[17],> 100 µM (inactive)
same,GI50,[56],> 100 µM (inactive)
same,GI50,[18],> 100 µM (inactive)
same,GI50,[19],> 100 µM (inactive)
same,GI50,[20],> 100 µM (inactive)
same,GI50,[21],> 100 µM (inactive)
same,GI50,[22],> 100 µM (inactive)
same,GI50,[57],59.3 µM (inactive)
same,GI50,[23],51.8 µM (inactive)
same,GI50,[58],> 100 µM (inactive)
same,GI50,[24],> 100 µM (inactive)
same,GI50,[25],> 100 µM (inactive)
same,GI50,[26],> 100 µM (inactive)
same,GI50,[27],> 100 µM (inactive)
same,GI50,[28],> 100 µM (inactive)
same,GI50,[29],> 100 µM (inactive)
same,GI50,[30],> 100 µM (inactive)
same,GI50,[31],> 100 µM (inactive)
same,GI50,[32],> 100 µM (inactive)
same,GI50,[33],> 100 µM (inactive)
same,GI50,[34],> 100 µM (inactive)
same,GI50,[35],> 100 µM (inactive)
same,GI50,[59],> 100 µM (inactive)
same,GI50,[36],94.2 µM (inactive)
same,GI50,[37],> 100 µM (inactive)
same,GI50,[38],> 100 µM (inactive)
same,GI50,[39],> 100 µM (inactive)
same,GI50,[40],> 100 µM (inactive)
same,GI50,[41],74.8 µM (inactive)
same,GI50,[42],> 100 µM (inactive)
same,GI50,[60],> 100 µM (inactive)
same,GI50,[43],> 100 µM (inactive)
same,GI50,[44],> 100 µM (inactive)
same,GI50,[45],> 100 µM (inactive)
same,GI50,[46],> 100 µM (inactive)
same,GI50,[47],> 100 µM (inactive)
same,GI50,[48],> 100 µM (inactive)
same,GI50,[49],60.8 µM (inactive)
same,GI50,[50],> 100 µM (inactive)
same,GI50,[51],> 100 µM
same,GI50,[52],> 100 µM (inactive)
same,GI50,[53],> 100 µM (inactive)
